# Columns and labels:
# C57/BL6 mice [1] = experiment: Percentages of effector T cells in lymph node cells by FACS analysis; format: in vivo, mouse; details: mice injected with bavachin together with OVA vs OVA alone; FIG. 7
# Experimental: (§1) C57/BL6 mice were immunized with a mixture of OVA (10 μg) and bavachin (10 μg) or a mixture of OVA (10 μg) and bavachin (100 μg) by subcutaneous injection once every 1, 3, and 4 weeks. In this regard, those injected with OVA (10 μg) alone was used as a control.
# (§2) Briefly, at 28 days after the first immunization, lymph nodes and spleens were removed from 5 mice per the treated mouse group (0.5% CMC (CON), OVA, Bavachin […], OVA+Bavachin), and ground to isolate cells from the tissue capsule. The spleens were subjected to hemolysis by treatment with an RBC lysis buffer, and splenocytes were isolated.
# Further, percentages of CD44^+CD62L^−CD4 cells and CD44^+CD62L^−CD8 cells, which are effector T cells, were compared by performing FAGS analysis of the lymph node cells (FIG. 7).
# C57/BL6 mice [2] = experiment: Serum immunoglobulin isotyping assay (CBA isotyping kit); format: in vivo, mouse; details: mice injected with bavachin together with OVA vs OVA alone; FIG. 2
# Experimental: as §1
# Antibody subclasses in the mouse sera collected in Example 3 were stained with CBA (Cytometric Bead Array) isotyping kit and analyzed by FAGS (FIG. 2).
# C57/BL6 mice [3] = experiment: Percentages of CD4 and CD8 cells in splenocytes by FACS analysis; format: in vivo, mouse; details: mice injected with bavachin together with OVA vs OVA alone; FIG. 6
# Experimental: as §1, §2
# Therefore, percentages of CD4 cells and CD8 cells were compared by performing FAGS analysis of the splenocytes (FIG. 6).
# C57/BL6 mice [4] = experiment: Total numbers of splenocytes and lymph node cells; format: in vivo, mouse; details: mice injected with bavachin together with OVA vs OVA alone; day 28; FIG. 5
# Experimental: as §1, §2
# The total numbers of the splenocytes and lymph node cells obtained in Example 5 were counted (FIG. 5).
# [5] = tested on: splenocytes and lymph node cells; experiment: Antigen-specific cell proliferation of splenocytes and lymph node cells by MTS; format: cell-based, mouse; details: cells from mice injected with bavachin together with OVA vs OVA alone; day 28; treated with OVA 48 hours; FIG. 3
# Experimental: as §1, §2
# (§3) The isolated splenocytes and lymph node cells were dispensed in a 96-well-plate at a density of 1×10^6 cells/well, followed by treated with OVA for 48 hours. Thereafter, cell proliferation was measured by MTS (FIG. 3), and cytokines (IFN-γ, IL-2, IL-4, IL-6, IL-10, and TNF) secreted from the cells were measured by CBA (FIG. 4).
# [6] = tested on: splenocytes and lymph node cells; experiment: Cytokines secreted from splenocytes and lymph node cells by CBA; format: cell-based, mouse; details: cells from mice injected with bavachin together with OVA vs OVA alone; day 28; treated with OVA 48 hours; FIG. 4
# Experimental: as §1, §2, §3
# C57/BL6 mice [7] = experiment: OVA-specific IgG antibody titer in mouse sera by ELISA; format: in vivo; details: mice injected s.c. with bavachin (10 or 100 μg) together with OVA (10 μg) vs OVA alone; sera at 28 and 42 days; FIG. 1
# Experimental: as §1
# At 28 days and 42 days after the first immunization in Example 2, mouse sera were collected, and the titers of antigen-specific IgG antibodies in the sera were measured by way of ELISA (FIG. 1). At this time, in the ELISA method, an OVA-coated plate was blocked, and then sera of a control group and an experimental group were incubated at various serial dilution rates. Thereafter, horseradish peroxidase-conjugated mouse-IgG and IgG1 antibodies were added, and a substrate was added and allowed to react, followed by measurement with an ELISA reader.
structure (smiles),measurement,setting,value
CC(C)=CCc1cc2c(cc1O)O[C@H](c1ccc(O)cc1)CC2=O [bavachin],percentages of effector T cells (CD44+CD62L−CD4 and CD44+CD62L−CD8) in lymph node cells,C57/BL6 mice [1],relatively high levels
same,IgA immunoglobulin level in sera,C57/BL6 mice [2],relatively high levels
same,IgG1 immunoglobulin level in sera,C57/BL6 mice [2],relatively high levels
same,percentage of CD4 cells in splenocytes,C57/BL6 mice [3],relatively high levels
same,percentage of CD8 cells in splenocytes,C57/BL6 mice [3],relatively high levels
same,number of lymph node cells,C57/BL6 mice [4],relatively high levels
same,number of splenocytes,C57/BL6 mice [4],no significant difference
same,cell proliferation ability of lymph node cells,[5],relatively excellent cell proliferation ability
same,cell proliferation ability of splenocytes,[5],relatively excellent cell proliferation ability
same,"levels of cytokines (IFN-γ, IL-2, IL-4, IL-6, IL-10, and TNF) secreted from lymph node cells",[6],relatively high levels
same,"levels of cytokines (IFN-γ, IL-2, IL-4, IL-6, IL-10, and TNF) secreted from splenocytes",[6],relatively high levels
same,OVA-specific antibody titers,C57/BL6 mice [7],significantly increased
